Assay results published in publication PMC7696433, “Carbohydrate Hydrolase-Inhibitory Activity of Juice-Based Phenolic Extracts in Correlation to Their Anthocyanin/Copigment Profile” (Molecules, 2020).

Tests used:
[1] = target: T1, porcine pancreatic α-amylase (Sus scrofa, UniProt P00690); assay: In vitro α-amylase inhibition study (CNPG3 substrate, absorbance 405 nm); format: biochemical; conditions: 2 mM of single substance; mean ± SD, n = 3
T1 construct: α-amylase from porcine pancreas; purchased Sigma-Aldrich (Taufkirchen, Germany); host or cells: porcine pancreas
T1 sequence (P00690 16-511): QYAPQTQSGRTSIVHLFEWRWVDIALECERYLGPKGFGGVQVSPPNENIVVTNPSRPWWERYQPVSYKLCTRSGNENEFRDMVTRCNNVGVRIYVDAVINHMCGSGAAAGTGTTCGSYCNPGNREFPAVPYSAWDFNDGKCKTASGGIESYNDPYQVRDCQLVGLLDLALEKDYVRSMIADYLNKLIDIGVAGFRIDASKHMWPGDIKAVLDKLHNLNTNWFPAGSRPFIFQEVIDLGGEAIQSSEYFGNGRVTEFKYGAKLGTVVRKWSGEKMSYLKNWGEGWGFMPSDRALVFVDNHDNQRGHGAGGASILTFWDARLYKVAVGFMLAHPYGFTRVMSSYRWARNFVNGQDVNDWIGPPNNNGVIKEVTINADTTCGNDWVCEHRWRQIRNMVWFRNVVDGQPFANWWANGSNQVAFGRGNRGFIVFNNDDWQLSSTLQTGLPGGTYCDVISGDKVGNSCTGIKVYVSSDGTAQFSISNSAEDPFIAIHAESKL
Method: The α-amylase inhibition assay was based on a previously described spectrophotometric method. […] Briefly, 20 μL aliquots of the sample (in five different concentrations), the positive control, or the negative control were each mixed with 70 μL of 40 mM phosphate buffered saline (PBS) at pH 6.9 containing 30 U/mL of porcine pancreatic α-amylase and incubated in a 96-well microplate at 37 °C for 10 min. After pre-incubation, 100 μL of substrate solution (40 mM PBS with 4 mM 2-chloro-4-nitrophenyl-α-D-maltotrioside) was added, and the resulting mixtures were incubated at 37 °C for 8 min. Their absorbance was then measured at λ 405 nm using a microplate reader (Biotek, Bad Friedrichshall, Germany). Each sample was measured in triplicate.

[2] = system: α-glucosidase from Saccharomyces cerevisiae; assay: In vitro α-glucosidase inhibition study (pNPG substrate, absorbance 405 nm); format: biochemical; conditions: 2 mM of single substance; mean ± SD, n = 3
Method: The α-glucosidase inhibition assay used 4-nitrophenyl-α-D-glucopyranoside as substrate. 20 μL aliquots of the sample (in five different concentrations) or negative and positive control solutions were each mixed with 70 μL enzyme solution (1 U/mL) in 0.1 M PBS (pH 6.8). After incubation at 25 °C for 10 min, 100 μL of 4 mM pNPG solution in PBS was added and incubated in a 96-well microplate for 5 min at 25 °C. The absorbance was measured at λ 405 nm using a microplate reader (Biotek, Bad Friedrichshall, Germany). Each sample was measured in triplicate.

| SMILES | Inhibition (%) of α-amylase [1] [%] | Inhibition (%) of α-glucosidase [2] [%] |
| --- | --- | --- |
| O=c1c(O[C@@H]2O[C@H](CO)[C@@H](O)[C@H](O)[C@H]2O)c(-c2ccc(O)cc2)oc2cc(O)cc(O)c12 [kaempferol 3-glucoside] | 30.3 ± 2.2 | 13.2 ± 0.7 |
| O=C(/C=C/c1ccc(O)c(O)c1)O[C@@H]1C[C@](O)(C(=O)O)C[C@@H](O)[C@H]1O [chlorogenic acid] | 20.3 ± 2.3 | 1.6 ± 3.1 |
| O=C(/C=C/c1ccc(O)c(O)c1)O[C@@H](C(=O)O)[C@@H](O)C(=O)O [caftaric acid] | 11.5 ± 2.5 | 4.6 ± 2.2 |
| Oc1cc(O)c2cc(O)c(-c3ccc(O)c(O)c3)[o+]c2c1 [Cyanidin] | – | 35.5 ± 2.4 |
| COc1cc(-c2[o+]c3cc(O)cc(O)c3cc2O[C@@H]2O[C@H](CO)[C@@H](O)[C@H](O)[C@H]2O)cc(OC)c1O [malvidin glucoside, Malvidin 3-glucoside] | 9.1 ± 5.6 | – |
| O=c1c(O[C@@H]2O[C@H](CO)[C@H](O)[C@H](O)[C@H]2O)c(-c2ccc(O)c(O)c2)oc2cc(O)cc(O)c12 [quercetin 3-galactoside] | 28.0 ± 1.0 | 8.3 ± 1.2 |
| O=C1OC[C@H]2OC(O)[C@H](O)[C@@H](O)[C@@H]2OC(=O)c2cc(O)c(O)c(O)c2-c2c(O)c(O)c3oc(=O)c4c(c(O)c(O)c5oc(=O)c2c3c54)-c2c1cc(O)c(O)c2O (mixture of isomers) [punicalin] | 3.8 ± 0.2 | 8.7 ± 0.6 |
| COc1cc(-c2[o+]c3cc(O)cc(O)c3cc2O[C@@H]2O[C@H](CO)[C@@H](O)[C@H](O)[C@H]2O)cc(O)c1O [petunidin glucoside, Petunidin 3-glucoside] | 7.7 ± 2.5 | – |
| O=c1oc2c(O)c(O)cc3c(=O)oc4c(O)c(O)cc1c4c23 [ellagic acid] | 11.0 ± 0.8 | 6.0 ± 0.8 |
| COc1cc(-c2[o+]c3cc(O)cc(O)c3cc2O[C@@H]2O[C@H](CO)[C@@H](O)[C@H](O)[C@H]2O)ccc1O [peonidin glucoside, Peonidin 3-glucoside] | 11.3 ± 0.5 | – |
| OC[C@H]1O[C@@H](Oc2cc3c(O)cc(O)cc3[o+]c2-c2ccc(O)c(O)c2)[C@H](O)[C@@H](O)[C@@H]1O [cyanidin 3-glucoside] | – | 7.8 ± 5.5 |
| OC[C@H]1O[C@@H](Oc2cc3c(O)cc(O)cc3[o+]c2-c2cc(O)c(O)c(O)c2)[C@H](O)[C@@H](O)[C@@H]1O [delphinidin glucoside, Delphinidin 3-glucoside] | 12.7 ± 1.9 | – |
| O=C(/C=C/c1ccc(O)c(O)c1)O[C@@H]1C[C@](O)(C(=O)O)C[C@@H](O)[C@H]1O [3-caffeoylquinic acid] | 13.8 ± 1.4 | 3.6 ± 2.2 |
| C[C@@H]1O[C@@H](OC[C@H]2O[C@@H](Oc3cc4c(O)cc(O)cc4[o+]c3-c3ccc(O)c(O)c3)[C@H](O)[C@@H](O)[C@@H]2O)[C@H](O)[C@H](O)[C@H]1O [cyanidin 3-rutinoside] | 7.6 ± 1.8 | – |
| O=C(/C=C/c1ccc(O)c(O)c1)O[C@H]1[C@H](O)C[C@](O)(C(=O)O)C[C@H]1O [4-caffeoylquinic acid] | 16.0 ± 3.1 | 4.5 ± 3.3 |
| Oc1cc(O)c2cc(O[C@@H]3OC[C@H](O)[C@H](O)[C@H]3O)c(-c3ccc(O)c(O)c3)[o+]c2c1 [cyanidin 3-arabinoside] | 18.7 ± 1.2 | – |
| OC[C@H]1O[C@@H](Oc2cc3c(O[C@@H]4O[C@H](CO)[C@@H](O)[C@H](O)[C@H]4O)cc(O)cc3[o+]c2-c2ccc(O)c(O)c2)[C@H](O)[C@@H](O)[C@@H]1O [cyanidin 3,5-diglucoside] | – | 4.9 ± 5.2 |
| O=C1O[C@H]2[C@@H]3OC(=O)c4cc(O)c(O)c(O)c4-c4c(O)c(O)c5oc(=O)c6c(c(O)c(O)c7oc(=O)c4c5c76)-c4c(cc(O)c(O)c4O)C(=O)OC[C@H]3OC(O)[C@@H]2OC(=O)c2cc(O)c(O)c(O)c2-c2c1cc(O)c(O)c2O (mixture of isomers) [punicalagin] | 4.8 ± 2.6 | 11.5 ± 1.0 |
